Assay results reported in patent publication US20190004043A1 (priority 2015, published 2019).
Entries after “also recorded” stand apart in the source; their conditions may differ. Like-named read-outs stand apart in the source and are kept apart here.

Tests used:
Assay type in all cases: binding
[1] = target: T1, Torpedo nicotinic Acetylcholine Receptor (Tetronarce californica, UniProt P02710+P02714+P02718); assay: Lateral flow test with two test lines: dose-response competition with biotinylated toxin tracer; settings: for coloration of the two test lines / inhibition of labelled ligand binding: toxin 0.01 to 1 μM
Procedure: The device used was a device manufactured according to above example 1, with the exception that two test lines were used instead of one test line and one control line. The control line is used to control if the strip test works properly. We controlled that all the lateral flow test devices were working well and we carried out several tests without toxins that we took as control (Ctrl) that the device was working as expected (FIG. 4).
In the present example several experiments were carried out using different toxins at different concentrations. Through the format two test lines, we tested the potency of the toxins at a given concentration.
In particular, different doses of the snake toxin a-bungarotoxin were tested between 0.01 to 10 μM (FIG. 4A). For that purpose, 1 mL of α-bungarotoxin at a concentration of 10 μM was prepared from the commercial a-bungarotoxin (Sigma; 250 μM) using TBS-BSA buffer (150 mM NaCl, 50 mM Tris-HCl, 0.5% BSA, pH 7.5). Successively, 1 mL of 1 μM α-bungarotoxin was prepared by diluting 10-times the previous concentrated solution using TBS-BSA buffer. Serial 10-times dilutions were performed as described to obtain the 0.1 and 0.01 μM α-bungarotoxin solutions using TBS-BSA buffer.
Different doses of the dinoflagellate toxin pinnatoxin-G ranging from 0.01 to 100 μM were also tested (FIG. 4B). For that purpose, 1 mL of pinnatoxin-G at a concentration of 100 μM was prepared from the synthetic pinnatoxin-G stock (A. Zakarian; 2 mM) using TBS-BSA buffer (150 mM NaCl, 50 mM Tris-HCl, 0.5% BSA, pH 7.5). Successively, 1 mL of 50 μM pinnatoxin-G was prepared by diluting 2-times the previous concentrated solution using TBS-BSA buffer. A solution of 1 μM pinnatoxin-G was obtained by diluting 50-times the previous 50 μM pinnatoxin-G solution using TBS-BSA buffer. Serial 10-times dilutions were performed as described to obtain the 0.1 and 0.01 μM pinnatoxin-G solutions using TBS-BSA buffer.
Finally, different doses of the dinoflagellate toxin 13,19-didesmethyl-spirolide C ranging from 0.01 to 10 μM were also tested. For that purpose, 1 mL of 13,19-didesmethyl-spirolide C at a concentration of 10 μM was prepared from the concentrated 13,19-didesmethyl-spirolide C stock (CIFGA; 100 μM) using TBS-BSA buffer (150 mM NaCl, 50 mM Tris-HCl, 0.5% BSA, pH 7.5). Successively, 1 mL of 1 μM 13,19-didesmethyl-spirolide C was prepared by diluting 10-times the previous concentrated solution using TBS-BSA buffer. Serial 10-times dilutions were performed as described to obtain the 0.1 and 0.01 μM 13,19-didesmethyl-spirolide C solutions using TBS-BSA buffer.
The competition experiments were carried out as disclosed in above example 2.

[2] = target: T1, Torpedo nicotinic Acetylcholine Receptor
[3] = target: T1, Torpedo nicotinic Acetylcholine Receptor; assay: Lateral flow test with two test lines: dose-response competition with biotinylated toxin tracer; settings: lower concentrations (0.001 to 1 μM)

T1 sequence (P02718 22-522): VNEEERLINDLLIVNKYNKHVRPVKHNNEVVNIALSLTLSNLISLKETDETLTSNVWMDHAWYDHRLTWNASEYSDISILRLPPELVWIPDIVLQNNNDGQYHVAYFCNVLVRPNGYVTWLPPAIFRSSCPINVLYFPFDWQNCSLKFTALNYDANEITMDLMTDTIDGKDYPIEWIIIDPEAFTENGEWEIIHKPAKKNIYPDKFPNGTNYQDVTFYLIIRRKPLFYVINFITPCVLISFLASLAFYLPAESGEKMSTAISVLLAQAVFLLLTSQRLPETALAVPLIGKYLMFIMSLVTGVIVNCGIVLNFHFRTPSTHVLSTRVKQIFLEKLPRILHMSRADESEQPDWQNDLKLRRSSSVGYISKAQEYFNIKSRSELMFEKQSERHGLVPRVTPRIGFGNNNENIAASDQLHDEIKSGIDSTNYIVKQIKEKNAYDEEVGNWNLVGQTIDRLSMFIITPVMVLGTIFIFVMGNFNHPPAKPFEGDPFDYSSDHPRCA
T1 sequence (P02714 18-506): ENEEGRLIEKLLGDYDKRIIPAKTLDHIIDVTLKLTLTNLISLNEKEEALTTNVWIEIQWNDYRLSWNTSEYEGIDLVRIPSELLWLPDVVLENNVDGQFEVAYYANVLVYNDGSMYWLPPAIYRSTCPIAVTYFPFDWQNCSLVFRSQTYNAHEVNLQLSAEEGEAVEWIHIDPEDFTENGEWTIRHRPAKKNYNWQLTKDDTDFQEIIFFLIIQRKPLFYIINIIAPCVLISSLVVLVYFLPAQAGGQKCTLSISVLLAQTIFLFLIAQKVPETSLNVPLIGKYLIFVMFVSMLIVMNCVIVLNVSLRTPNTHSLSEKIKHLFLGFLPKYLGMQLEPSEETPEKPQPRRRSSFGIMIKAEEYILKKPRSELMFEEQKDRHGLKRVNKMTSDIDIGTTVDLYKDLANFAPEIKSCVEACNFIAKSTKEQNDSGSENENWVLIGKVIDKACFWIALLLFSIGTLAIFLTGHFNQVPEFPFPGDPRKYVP
T1 sequence (P02712 25-493, further chain): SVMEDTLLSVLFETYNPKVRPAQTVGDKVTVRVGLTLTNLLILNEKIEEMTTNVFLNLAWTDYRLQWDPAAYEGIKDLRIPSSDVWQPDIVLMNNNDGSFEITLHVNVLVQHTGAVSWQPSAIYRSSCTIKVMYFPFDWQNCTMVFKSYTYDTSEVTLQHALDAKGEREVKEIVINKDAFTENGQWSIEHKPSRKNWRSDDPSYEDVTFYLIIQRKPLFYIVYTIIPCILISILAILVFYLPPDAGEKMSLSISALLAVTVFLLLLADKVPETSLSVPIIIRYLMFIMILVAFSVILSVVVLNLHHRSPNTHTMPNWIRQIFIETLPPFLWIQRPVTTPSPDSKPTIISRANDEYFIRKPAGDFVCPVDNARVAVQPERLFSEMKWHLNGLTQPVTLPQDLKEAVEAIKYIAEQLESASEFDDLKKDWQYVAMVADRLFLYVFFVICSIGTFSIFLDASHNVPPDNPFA
T1 sequence (P02710 25-461): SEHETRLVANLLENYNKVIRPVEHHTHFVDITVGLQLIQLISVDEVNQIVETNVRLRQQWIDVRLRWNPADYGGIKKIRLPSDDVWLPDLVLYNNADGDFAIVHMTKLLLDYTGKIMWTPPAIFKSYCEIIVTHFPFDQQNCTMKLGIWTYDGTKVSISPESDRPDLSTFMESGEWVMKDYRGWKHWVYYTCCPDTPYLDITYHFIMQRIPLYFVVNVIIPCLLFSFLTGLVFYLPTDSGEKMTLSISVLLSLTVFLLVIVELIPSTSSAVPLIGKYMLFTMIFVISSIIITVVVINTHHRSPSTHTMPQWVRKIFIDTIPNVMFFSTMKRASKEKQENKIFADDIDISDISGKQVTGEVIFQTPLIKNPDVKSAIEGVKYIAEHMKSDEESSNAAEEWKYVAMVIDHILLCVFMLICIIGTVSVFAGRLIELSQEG

Compound: C=C1CCCC2=NCC(C)C(C)CC23CCC(C2C=C(C)C(=O)O2)=C(C)C3/C=C(\C)C(O)CC2CCC3(CCC4(OC(CCC4O)C1)O3)O2 (centres unmarked) [13,19-didesmethyl-spirolide C]
- inhibition of binding of the biotinylated toxin tracer ([1]; all concentrations, 0.01 to 10 μM): inhibited the binding of the biotinylated toxin tracer at all concentration
- inhibition of binding of the labelled ligand (test lines colorless) ([1]; toxin 1 μM): 100%
- inhibition of binding of the labelled ligand (test lines colorless) ([1]; toxin 10 μM): 100%
- coloration of the two test lines / inhibition of labelled ligand binding [1]: strong inhibition

Compound: C=C1CCCC2=NCC(C)C(C)CC23CCC(C2C=C(C)C(=O)O2)=C(C)C3/C=C(/C)C(O)CC2CCC3(CCC4(OC(CCC4(C)O)C1)O3)O2 (centres unmarked) [13-desmethyl-spirolide C]
- coloration of test line versus control line / inhibition of tracer binding [2]: a colorless or a less-colored band in the test zone; also recorded: inhibits the binding of the tracer

Compound: C=CC1=C[C@@H]2[C@@H]3O[C@]4(C[C@H]5CCC[C@@]6(CC[C@@]7(O[C@@H](CC[C@@]7(C)O)CC(=C)CCCC7=NC[C@H](C)[C@@H](C)C[C@@]72CC1)O6)O5)C[C@@H](C)[C@@H](O)[C@H]3O4 [pinnatoxin-G]
- coloration of the two test lines versus control test [3]: only the upper test line was colored but to a less intensity than in the control test
- coloration of the two test lines versus control strip ([1]; toxin 50 μM): both test lines were colorless
- inhibition of binding of the labelled ligand (test lines colorless) ([1]; toxin 50 μM): 100%
- coloration of the two test lines versus control strip ([1]; toxin 100 μM): both test lines were colorless
- inhibition of binding of the labelled ligand (test lines colorless) ([1]; toxin 100 μM): 100%
- coloration of the two test lines / inhibition of labelled ligand binding [1]: only the second test line was colored with a lower intensity than was shown by the control strip

Compound: α-bungarotoxin
- coloration of the two test lines / binding of labelled tracer [1]: inhibited the binding of the labelled tracer in both test lines
- coloration of the two test lines versus control test [1]: both test lines are colored showing, however, a less intensity than in the control test
- inhibition of binding of the labelled ligand (test lines colorless) [1]: 100%
